Converted amounts (≈) assume the structure as drawn. “And” between values parts separate entries of the source, which are not always exact repeats. Equal values may be shown once. Read-outs that look alike come from different tables or passages of the source.
Tests used:
[1] = test system: zebrafish embryos and larvae (AB strain); settings: for NH: Number of health fish: of 60 embryos
Procedure: Toxicant exposure of the embryos: transferring healthy zebrafish embryos laid within 4 hours with droppers into 24 well plates which serve as embryo incubation containers, adding one embryo and 2 mL of the test drug liquid into each well, setting four replicates at a time for each concentration, using a total of 4×15 embryos per concentration; then, placing the 24 well plates into an incubator at a temperature of 26±1° C., allowing incubation under a condition of 14 h light: 10 h dark, recording the death number and the incubation time of the embryos every day, and replacing the test drug liquids once every two days during this test stage. Each concentration consumes a total of 60 embryos, and thus multiple 24 well plates are used during the test.
Selection of a test organism: zebrafish is selected as the test organism, the zebrafish is AB strain and embryos used in the test are propagated and obtained by the following methods: before the test, zebrafish broodstock is reared in water at a temperature of 26±1° C., the ratio of light time to dark time is 14 h:10 h, and when it is lighted, it should be naturally illuminated in a 4.8 m×3.0 m room, plus four 40 W fluorescent lamps, and the feeding lasts at least 2 weeks in an environment which is oxygenated by aeration, the zebrafish broodstock is fed once a day during pre-cultivation, and feces and food residues are removed in time. The zebrafish is purchased from the Institute of Hydrobiology of Chinese Academy of Science. The zebrafish has the advantages of short growth cycle, strong reproductive ability, transparent fertilized eggs, and easy observation of embryonic development, making it an important model organism in aquatic ecological toxicology research.
Toxicant exposure of larvae: recording the number of the larvae at the end of the embryo hatching, transferring the larvae into glass beakers containing 200 mL of the test drug liquid with the corresponding test concentration, replacing the test drug liquids once every two days during this test stage that lasts 30 days after hatching, and feeding the zebrafish larvae with yolk in the first three days and then with fairy shrimp twice a day, wherein the larvae are firstly fed on the fourth or fifth day after spawning. The feed amount is adjusted according to the actual situation so as to be able to freely ingest and avoid excess.
During the test, if relevant test data are found to be not in the preceding scopes, then the current test is invalid, and a new test is required to be carried out again.
Observation in the test: observing the hatching rate and survival rate and recording the quantity of the larvae once a day; checking the larvae's malformation, the number of malformed larvae and abnormal behaviors once a week; removing impurities and dead larvae in beakers in a timely manner; all live larvae of the control groups and the concentration test groups are anesthetized with MS-222 for measurement of the body lengths and wet weights one by one at the end of the test, wherein the body length of each adolescent fish is measured with a vernier caliper, and the wet weight of each adolescent fish is weighed with an electronic balance. The reciprocal sensibility of the electronic balance is 0.00001 g, and the moisture on the body surface of each fish needs to be removed when the wet weight is weighed.
DPS statistical analysis software is the existing software and therefore is not described in detail here. Any other software that can implement the statistical analysis function is also available.

[2] = 20° C.; cited from earlier work

## CN/C(=N/CC1CCOC1)N[N+](=O)[O-] (centres unmarked) [dinotefuran]
[1]; 9.375 mg a.i./L
  weights of the larvae versus control groups: obviously different
[1]; 9.375 mg a.i./L, end of test
  AL: Average length of live fish: 15.86 ± 0.95 a mm
  AM: Accumulative mortality: 26.67 a %
  NH: Number of health fish: 44 Piece
[1]; 9.375 mg/L, end of test
  Average weight of Live fish: 16.53 ± 2.18 b mg
[1]; 18.75 mg a.i./L
  weights of the larvae versus control groups: obviously different
[1]; 18.75 mg a.i./L, end of test
  AL: Average length of live fish: 15.83 ± 0.88 a mm
  AM: Accumulative mortality (death rate of the larvae): 41.67% and 41.67 b %
  NH: Number of health fish: 35 Piece
[1]; 18.75 mg/L, end of test
  Average weight of Live fish: 14.21 ± 1.68 c mg
[1]; 37.5 mg a.i./L
  body lengths of the larvae versus control groups: obviously different
  weights of the larvae versus control groups: obviously different
[1]; 37.5 mg a.i./L, end of test
  AL: Average length of live fish: 13.52 ± 1.61 b mm
  AM: Accumulative mortality (death rate of the larvae): 46.67% and 46.67 b %
  NH: Number of health fish: 32 Piece
[1]; 37.5 mg/L, end of test
  Average weight of Live fish: 13.89 ± 1.96 c mg
[1]; 75.0 mg a.i./L
  body lengths of the larvae versus control groups: obviously different
  weights of the larvae versus control groups: obviously different
[1]; 75.0 mg a.i./L, end of test
  AL: Average length of live fish: 12.83 ± 1.53 b mm
  AM: Accumulative mortality (death rate of the larvae): 55.0% and 55.0 b %
  NH: Number of health fish: 27 Piece
[1]; 75.0 mg/L, end of test
  Average weight of Live fish: 13.29 ± 2.96 c mg
[1]; 150 mg a.i./L
  fate of all larvae at the end of the test: died
[1]; 300 mg a.i./L
  fate of all larvae at the end of the test: died
[1]; end of test
  minimum observable effect concentration on the body lengths of the larvae: 37.5 mg a.i./L
  minimum observable effect concentration on the weights of the larvae: 9.375 mg a.i./L
  unobservable effect concentration on the body lengths of the larvae: 18.75 mg a.i./L
[1]; test groups
  toxic symptoms during the exposure stage: no obvious toxic symptoms were observed except malformation of several fishes before death
[2]
  solubility in methanol: 57 mg/mL (≈ 282 mM)

Source: patent publication US12399167B2 (priority 2019, dated 2025)
